Measured values reported in patent US5254550A, “Prolinal derivatives and pharmaceutical compositions thereof” (Ono Pharmaceutical Co., Ltd., priority 1986, dated 1993).
Residues, ends and D or L forms follow the SMILES beside them. *: point of attachment. Cbz = O=C(OCc1ccccc1)*; CH2Cl = ClC*

How the values were obtained:
prolyl endopeptidase [1] = molecular target: T1, prolyl endopeptidase (Bos taurus, UniProt Q9XTA2); assay: Prolyl Endopeptidase Inhibitory Activity in Vitro; assay type: biochemical; details: prolyl endopeptidase purified from bovine brain; substrate N-benzyloxycarbonyl-glycyl-prolyl-p-nitroanilide; pH 7.5, 37° C., 15 mins preincubation, 405 nm; read-out: Concentration for 50% inhibition IC50
T1 construct: prolyl endopeptidase which was purified from bovine brain; from tissue; host or cells: bovine brain (purified by the method of J. Biochem., 94, 1179 (1983))
T1 sequence (Q9XTA2 whole entry): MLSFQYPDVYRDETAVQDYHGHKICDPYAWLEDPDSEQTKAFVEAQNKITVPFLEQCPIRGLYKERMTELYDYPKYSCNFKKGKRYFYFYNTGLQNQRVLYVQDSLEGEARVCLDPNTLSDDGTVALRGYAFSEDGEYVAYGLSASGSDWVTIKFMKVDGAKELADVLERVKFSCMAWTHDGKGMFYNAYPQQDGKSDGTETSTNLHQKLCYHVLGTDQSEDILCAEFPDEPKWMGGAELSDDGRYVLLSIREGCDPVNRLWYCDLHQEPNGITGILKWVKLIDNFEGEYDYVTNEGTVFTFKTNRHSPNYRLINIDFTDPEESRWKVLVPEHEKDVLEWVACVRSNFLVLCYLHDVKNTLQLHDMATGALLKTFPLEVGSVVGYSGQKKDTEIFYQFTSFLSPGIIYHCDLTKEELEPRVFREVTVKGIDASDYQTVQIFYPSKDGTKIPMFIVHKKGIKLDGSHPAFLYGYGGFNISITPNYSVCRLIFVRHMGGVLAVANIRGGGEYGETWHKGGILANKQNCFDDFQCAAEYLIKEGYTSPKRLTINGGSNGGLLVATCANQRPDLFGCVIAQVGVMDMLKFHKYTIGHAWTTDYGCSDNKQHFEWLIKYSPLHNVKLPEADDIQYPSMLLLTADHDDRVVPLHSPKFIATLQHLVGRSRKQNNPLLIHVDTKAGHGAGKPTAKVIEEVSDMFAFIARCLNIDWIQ
Experimental: Inhibitory activity of prolyl endopeptidase was measured by the following test system.
A mixed solution of 20 mM tris-HCl buffer (pH 7.5; 935 μl; containing 10 mM EDTA and 10 mM mercaptoethanol), a solution of a compound of the present invention in DMSO (10 μl) and a solution of prolyl endopeptidase which was purified from bovine brain (0.13 unit; prepared by the method described in J. Biochem., 94, 1179 (1983)) in tris-HCl buffer (15 μl) was preincubated for 15 mins at 37° C.
To the solution, 5 mM of N-benzyloxycarbonyl-glycyl-prolyl-p-nitroanilide (40 μl) in a mixture of 40% dioxane-60% water was added. The solution was incubated for 1 min at the same temperature.
Optical absorption (a1) at 405 nm of the solution, and optical absorption (a2) at 405 nm of the solution after more 30 mins' incubation at 37° C. were measured.
Optical absorptions (b1 and b2) of the solutions using DMSO instead of the solution of the compound of the present invention were also measured.
Inhibitory ratio was calculated by the following expression and IC50 (required concentration for 50% inhibition) was obtained (See Protein, Nucleic acid and Enzyme 25(6), 513, 1980). [formula]

prolyl endopeptidase [2] = details: See J. Neurochem., 41, 69 (1983); cited from earlier work

| SMILES | IC50 (prolyl endopeptidase [1]) [nM] | inhibition of prolyl endopeptidase (in words) (prolyl endopeptidase [2]) |
| --- | --- | --- |
| Cc1ccc(CNC(=O)CCC(=O)N2CCC[C@H]2C=O)cc1 [2 (a), N-[3-[N-(4-methylbenzyl)-carbamoyl]propanoyl]-L-prolinal] | 23 | – |
| Cc1ccc(CN(C(=O)CCC(=O)N2CCC[C@H]2C=O)c2ccccc2)cc1 [2 (n), N-[3-[N-(4-methylphenyl-methyl)-N-phenyl-carbamoyl]propanoyl]-L-prolinal] | 1.9 | – |
| O=C[C@@H]1CCCN1C(=O)[C@@H]1CCC[C@H]1C(=O)NCc1ccccc1 [1 (x), N-[(1R,2R)-2-(N-benzylcarbamoyl)cyclopentane-1-carbonyl]-L-prolinal] | 14 | – |
| O=C[C@@H]1CCCN1C(=O)CCC(=O)NCCCCCc1ccccc1 [1 (h), N-[3-[N-(5-phenylpentyl)carbamoyl]propanol]-L-prolinal] | 70 | – |
| O=C[C@@H]1CCCN1C(=O)CCC(=O)NCc1ccccc1Cl [2 (e), N-[3-[N-(2-chlorobenzyl)-carbamoyl]propanoyl]-L-prolinal] | 160 | – |
| O=C(NCC(=O)N1CCC[C@H]1C(=O)CCl)OCc1ccccc1 [N-benzyloxycarbonyl-glycyl-L-proplyl-chloromethane] (Cbz-Gly-Pro-CH2Cl) | – | strongly inhibit |
| O=C[C@@H]1CCCN1C(=O)CCC(=O)NCCc1ccccc1 [Example 1, N-[3-[N-(2-phenylethyl)carbamoyl]propanoyl]-L-prolinal] | 130 | – |
| O=C[C@@H]1CCCN1C(=O)CCC(=O)NCC(c1ccccc1)c1ccccc1 [1 (bb), N-[3-[N-(2,2-diphenylethyl)carbamoyl]propanoyl]-L-prolinal] | 1200 | – |
| O=C[C@@H]1CCCN1C(=O)CCC(=O)NCc1cccc2ccccc12 [2 (y), N-[3-[N-(1-naphthyl-methyl)carbamoyl]propanoyl]-L-prolinal] | 43 | – |
| O=C[C@@H]1CCCN1C(=O)CCC(=O)NCc1ccco1 [2 (dd), N-[3-[N-(2-furylmethyl)-carbamoyl]propanoyl]-L-prolinal] | 790 | – |
| CN(Cc1ccccc1)C(=O)C=CC(=O)N1CCC[C@H]1C=O [1 (s), N-[3-(N-benzyl-N-methylcarbamoyl)acryloyl]-L-prolinal] | 1900 | – |
| O=C[C@@H]1CCCN1C(=O)CCC(=O)NCc1ccccc1 [1 (a), N-[3-(N-benzylcarbamoyl)propanoyl)-L-prolinal] | 230 | – |
